Experimental findings from patent US20130310379A1, “MODULATORS OF METHYL MODIFYING ENZYMES, COMPOSITIONS AND USES THEREOF” (CONSTELLATION PHARMACEUTICALS, priority 2010, published 2013) are described below.

One may read the IC50 as the concentration that gives 50% inhibition.

Chain of EZH2 (Q15910 whole entry): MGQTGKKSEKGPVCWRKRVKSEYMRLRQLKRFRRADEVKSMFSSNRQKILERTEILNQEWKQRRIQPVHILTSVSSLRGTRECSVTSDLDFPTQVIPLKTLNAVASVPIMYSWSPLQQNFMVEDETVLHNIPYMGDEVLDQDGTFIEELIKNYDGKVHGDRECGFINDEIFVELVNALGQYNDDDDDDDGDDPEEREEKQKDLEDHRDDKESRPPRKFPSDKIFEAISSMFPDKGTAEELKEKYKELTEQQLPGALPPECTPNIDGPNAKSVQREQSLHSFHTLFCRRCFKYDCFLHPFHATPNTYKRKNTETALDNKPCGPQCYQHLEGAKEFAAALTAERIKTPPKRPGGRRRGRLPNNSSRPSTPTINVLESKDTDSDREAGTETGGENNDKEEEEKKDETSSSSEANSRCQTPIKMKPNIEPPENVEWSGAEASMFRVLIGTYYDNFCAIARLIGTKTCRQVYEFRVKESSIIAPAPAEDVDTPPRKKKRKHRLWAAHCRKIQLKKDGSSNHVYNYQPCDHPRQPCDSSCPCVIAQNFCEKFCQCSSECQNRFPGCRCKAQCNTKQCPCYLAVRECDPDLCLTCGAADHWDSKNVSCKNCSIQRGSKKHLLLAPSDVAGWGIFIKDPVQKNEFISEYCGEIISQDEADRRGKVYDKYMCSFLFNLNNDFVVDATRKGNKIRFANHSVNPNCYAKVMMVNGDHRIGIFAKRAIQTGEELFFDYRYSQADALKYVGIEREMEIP
Chain of EZH2 (O75530 whole entry partner): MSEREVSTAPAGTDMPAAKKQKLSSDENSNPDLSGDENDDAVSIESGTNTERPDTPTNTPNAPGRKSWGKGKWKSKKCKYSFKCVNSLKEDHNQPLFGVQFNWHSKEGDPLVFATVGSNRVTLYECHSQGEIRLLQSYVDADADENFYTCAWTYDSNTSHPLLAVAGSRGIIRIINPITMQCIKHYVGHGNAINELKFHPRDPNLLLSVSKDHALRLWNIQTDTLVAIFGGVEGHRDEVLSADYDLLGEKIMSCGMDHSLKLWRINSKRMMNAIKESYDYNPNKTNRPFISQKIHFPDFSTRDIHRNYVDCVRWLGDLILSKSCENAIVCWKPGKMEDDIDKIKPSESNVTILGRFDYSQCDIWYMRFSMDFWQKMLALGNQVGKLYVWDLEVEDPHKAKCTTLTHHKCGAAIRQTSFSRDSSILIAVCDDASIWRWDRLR
Chain of EZH2 (Q15022 whole entry partner): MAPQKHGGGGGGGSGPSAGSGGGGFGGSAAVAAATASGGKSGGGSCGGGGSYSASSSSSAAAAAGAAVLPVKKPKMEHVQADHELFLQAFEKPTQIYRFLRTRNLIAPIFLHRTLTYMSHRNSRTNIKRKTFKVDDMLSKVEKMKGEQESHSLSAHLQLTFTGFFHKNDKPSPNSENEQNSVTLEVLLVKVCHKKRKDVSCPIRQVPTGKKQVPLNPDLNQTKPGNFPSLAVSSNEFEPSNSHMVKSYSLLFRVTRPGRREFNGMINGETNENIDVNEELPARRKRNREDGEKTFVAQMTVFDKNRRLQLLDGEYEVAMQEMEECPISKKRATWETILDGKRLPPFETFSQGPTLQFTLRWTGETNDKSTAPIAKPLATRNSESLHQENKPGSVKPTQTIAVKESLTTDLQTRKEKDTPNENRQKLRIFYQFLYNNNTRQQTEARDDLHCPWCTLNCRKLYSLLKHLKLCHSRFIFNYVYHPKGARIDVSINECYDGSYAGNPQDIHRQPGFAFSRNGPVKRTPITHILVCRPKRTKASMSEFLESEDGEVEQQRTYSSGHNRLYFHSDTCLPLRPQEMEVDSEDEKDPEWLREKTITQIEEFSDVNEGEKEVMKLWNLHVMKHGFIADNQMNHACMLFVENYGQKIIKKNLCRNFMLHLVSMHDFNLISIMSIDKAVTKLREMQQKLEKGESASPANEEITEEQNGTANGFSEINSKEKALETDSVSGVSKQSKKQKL

The test addresses EZH2 (Homo sapiens, UniProt Q15910). Nature of the test: EZH2 assay: rPRC2 with biotinylated oligonucleosome substrates and 3H SAM, FlashPlate scintillation counting, IC50. It is filed as biochemical. The note with it: rPRC2, biotinylated oligonucleosome substrates, 3H SAM; read-out: EZH2 IC50. How it is done: Assays were carried out by mixing rPRC2 together with biotinylated oligonucleosome substrates in the presence of the radio-labeled enzyme co-factor, S-adenosyl-L-methionine (^3H SAM) (Perkin Elmer) and monitoring the enzymatically mediated transfer of tritiated methyl groups from ^3H SAM to histone lysine residues. The amount of resulting tritated methylhistone product was measured by first capturing the biotinylated oligonuclesomes in streptavidin (SAV) coated FlashPlates (Perkin Elmer), followed by a wash step to remove un-reacted ^3H SAM, and then counting on a TopCount NXT 384 well plate scintillation counter (Perkin Elmer). The final assay conditions for EZH2 were as follows: 50 mM Tris Buffer pH 8.5, 1 mM DTT, 69 uM Brij-35 detergent, 5.0 mM MgCl2, 0.1 mg/mL BSA, 0.2 uM ^3H SAM, 0.2 uM biotinylated oligonucleosomes, 3.6 uM H3K27me3 peptide and 2 nM EZH2.
Compound IC50 measurements were obtained as follows: Compounds were first dissolved in 100% DMSO as 10 mM stock solutions. […] A 12.5 uL volume of the HMT enzyme, H3K27me3 peptide and oligonucleosome substrate in assay buffer was added to each well of the assay plate using a Multidrop Combi (ThermoFisher). Compounds were pre-incubated with the enzyme for 20 min, followed by initiation of the methyltransferase reaction by addition of 12.5 uL of 3H SAM in assay buffer (final volume=25 uL). The final concentrations of compounds ranged from a top default concentration of 80 uM down to 0.16 uM in ten 2-fold dilution steps. Reactions were carried out for 60 minutes and quenched with 20 uL per well of 1.96 mM SAH, 50 mM Tris PH 8.5, 200 mM EDTA. Stopped reactions were transferred to SAV coated Flashplates (Perkin Elmer), incubated for 120 min, washed with a plate washer, and then read on the TopCount NXT (1.0 min/well) to measure the amount of methylhistone product formed during the reaction. The amount of methylhistone product was compared with the amount of product formed in the 0% and 100% inhibition control wells allowing the calculation of % Inhibition in the presence of the individual compounds at various concentrations. IC50's were computed using a 4 parameter fit non-linear curve fitting software package (XLFIT, part of the database package, ActivityBase (IDBS)) where the four parameters were IC50, Hill slope, pre-transitional baseline (0% INH), and post-transitional baseline (100% INH); with the latter two parameters being fixed to zero and 100%, respectively, by default.
Take `O=C(N[C@H]1CCN(Cc2ccccc2)C1)c1ccc(Oc2ccccc2)cc1` (stereo in doubt) [Compound I-101]: the IC50 is greater than 80 µM.
As to `CC1(C)CC(NC(=O)c2ccc(COc3cccc(-c4ccc(N)nc4)c3)cc2)CC(C)(C)N1` [Compound I-1], the IC50 was less than 5 µM.
Take `CC1(C)CC(NC(=O)c2ccc(Oc3ccccc3C#N)c(Cl)c2)CC(C)(C)N1` [Compound I-2]: the IC50 was less than 5 µM.
Consider `CC1(C)CC(NC(=O)c2ccc(COc3cccc(-c4cnc(N)nc4)c3)cc2)CC(C)(C)N1` [Compound I-3], for which the IC50 was less than 5 µM.
Under `CC1(C)CC(NC(=O)c2ccc(COc3cccc4ccccc34)cc2)CC(C)(C)N1` [Compound I-4] stands less than 5 µM.
As for `CC1(C)CC(NC(=O)c2ccc(COc3cccc(-c4cnc5[nH]ccc5c4)c3)cc2)CC(C)(C)N1` [Compound I-5], the IC50 was less than 5 µM.
Under `CC1(C)CC(NC(=O)c2ccc(Oc3ccccc3C#N)cc2)CC(C)(C)N1` [Compound I-6] stands less than 5 µM; under `CC1(C)CC(NC(=O)c2ccc(COc3cccc(-c4cccnc4)c3)cc2)CC(C)(C)N1` [Compound I-7], 5 to 20 µM.
Under `CC1(C)CC(NC(=O)c2ccc(COc3cccc(Br)c3)cc2)CC(C)(C)N1` [Compound I-8] stands 5 to 20 µM; under `Cc1cc(C)cc(OCc2ccc(C(=O)NC3CC(C)(C)NC(C)(C)C3)cc2)c1` [Compound I-9], 5 to 20 µM; under `CC1(C)CC(NC(=O)c2ccc(Oc3cccnc3C#N)cc2)CC(C)(C)N1` [Compound I-10], 5 to 20 µM.
On to `CC1(C)CC(NC(=O)c2ccc(COc3cccc(-c4cc[nH]c(=O)c4)c3)cc2)CC(C)(C)N1` [Compound I-11], for which the IC50 is 5 to 20 µM.
In the case of `CC1(C)CC(NC(=O)c2ccc(COc3cccc(-c4cn[nH]c4)c3)cc2)CC(C)(C)N1` [Compound I-12] it was 5 to 20 µM; in that of `Cc1cncc(-c2cccc(OCc3ccc(C(=O)NC4CC(C)(C)NC(C)(C)C4)cc3)c2)c1` [Compound I-13, 4-((3-(5-methylpyridin-3-yl)phenoxy)methyl)-N-(2,2,6,6-tetramethylpiperidin-4-yl)benzamide], 5 to 20 µM; in that of `Cc1ccc(-c2cccc(OCc3ccc(C(=O)NC4CC(C)(C)NC(C)(C)C4)cc3)c2)cn1` [Compound I-14], 5 to 20 µM.
For `Cc1ccc(OCc2ccc(C(=O)NC3CC(C)(C)NC(C)(C)C3)cc2)cc1C` [Compound I-15], the concentration for half-maximal inhibition (IC50) was 5 to 20 µM.
On to `CC1(C)CC(NC(=O)c2ccc(Oc3ccccc3Br)cc2)CC(C)(C)N1` [Compound I-16], for which the IC50 is 5 to 20 µM.
For the compound `CC1(C)CC(NC(=O)c2ccc(Oc3cccc(C#N)c3)cc2)CC(C)(C)N1` [Compound I-17], the IC50 was 5 to 20 µM.
Take `Cc1ccc(-c2cccc(OCc3ccc(C(=O)NC4CC(C)(C)NC(C)(C)C4)cc3)c2)s1` [Compound I-18]: the IC50 is 5 to 20 µM.
As for `CC1(C)CC(NC(=O)c2ccc(COc3cccc(-c4ccc(F)nc4)c3)cc2)CC(C)(C)N1` [Compound I-19], the IC50 is 5 to 20 µM.
Under `Cc1ncccc1Oc1ccc(C(=O)NC2CC(C)(C)NC(C)(C)C2)cc1` [Compound I-20] stands 5 to 20 µM; under `CC1(C)CC(NC(=O)c2ccc(Oc3cccnc3)cc2)CC(C)(C)N1` [Compound I-21], 20 to 80 µM.
As for `Cc1ccc(OCc2ccc(C(=O)NC3CC(C)(C)NC(C)(C)C3)cc2)cc1` [Compound I-22], the IC50 fell in the range of 20 to 80 µM.
In the case of `Cc1cccc(C)c1OCc1ccc(C(=O)NC2CC(C)(C)NC(C)(C)C2)cc1` [Compound I-23], the half-maximal inhibitory concentration (IC50) is 20 to 80 µM.
In the case of `Cc1cc(C(=O)NC2CC(C)(C)NC(C)(C)C2)ccc1Oc1ccccc1` [Compound I-24] it was 20 to 80 µM; in that of `CC1(C)CC(NC(=O)c2ccc(Oc3ccc(O)cc3)cc2)CC(C)(C)N1` [Compound I-25], 20 to 80 µM; in that of `CC(=O)Nc1cccc(Oc2ccc(C(=O)NC3CC(C)(C)NC(C)(C)C3)cc2)c1` [Compound I-26, 4-(3-Acetamidophenoxy)-N-(2,2,6,6-tetramethylpiperidin-4-yl)benzamide], 20 to 80 µM.
Turning to `Cc1cc(-c2cccc(OCc3ccc(C(=O)NC4CC(C)(C)NC(C)(C)C4)cc3)c2)cnc1F` [Compound I-27], the IC50 fell in the range of 20 to 80 µM.
Regarding `CC1(C)CC(NC(=O)c2ccc(Oc3ccccc3Cl)cc2)CC(C)(C)N1` [Compound I-28], the IC50 was 20 to 80 µM.
For the compound `CC1(C)CC(NC(=O)c2ccc(Oc3cccc(O)c3)cc2)CC(C)(C)N1` [Compound I-29], the IC50 lay within 20 to 80 µM.
In the case of `CC1(C)CC(NC(=O)c2ccc(COc3cccc(-c4cccc(O)c4)c3)cc2)CC(C)(C)N1` [Compound I-30] it was 20 to 80 µM.
In the case of `COc1cc(C(=O)NC2CC(C)(C)NC(C)(C)C2)ccc1COc1cccc(Br)c1` [Compound I-31] it was 20 to 80 µM; in that of `CC1(C)CC(NC(=O)c2ccc(COc3cccc(-c4cncnc4)c3)cc2)CC(C)(C)N1` [Compound I-32], 20 to 80 µM.
Under `CC1(C)CC(NC(=O)c2ccc(COc3cccc(-c4cncc(C#N)c4)c3)cc2)CC(C)(C)N1` [Compound I-33] stands 20 to 80 µM.
Take `CCOC(=O)c1cccc(Oc2ccc(C(=O)NC3CC(C)(C)NC(C)(C)C3)cc2)c1` [Compound I-34]: the IC50 lay within 20 to 80 µM.
Take `CCc1ccccc1Oc1ccc(C(=O)NC2CC(C)(C)NC(C)(C)C2)cc1` [Compound I-35]: the IC50 was 20 to 80 µM.
Consider `CC1(C)CC(NC(=O)c2ccc(COc3cccnc3)cc2)CC(C)(C)N1` [Compound I-36], for which the IC50 fell in the range of 20 to 80 µM.
Under `COc1cncc(-c2cccc(OCc3ccc(C(=O)NC4CC(C)(C)NC(C)(C)C4)cc3)c2)c1` [Compound I-37] stands 20 to 80 µM; under `CC1(C)CC(NC(=O)c2ccc(COc3cccc(-c4ccc(O)cc4)c3)cc2)CC(C)(C)N1` [Compound I-38], 20 to 80 µM.
In the case of `CC1(C)CC(NC(=O)c2ccc(COc3ccccc3)cc2)CC(C)(C)N1` [Compound I-39] it was 20 to 80 µM; in that of `CC1(C)CC(NC(=O)c2ccc(Oc3ccccc3F)cc2)CC(C)(C)N1` [Compound I-40], 20 to 80 µM.
On to `COc1ccc(-c2cccc(OCc3ccc(C(=O)NC4CC(C)(C)NC(C)(C)C4)cc3)c2)cn1` [Compound I-41], for which the IC50 fell in the range of 20 to 80 µM.
As to `Cc1ccc(OCc2ccc(C(=O)NC3CC(C)(C)NC(C)(C)C3)cc2)c(C)c1` [Compound I-42], the IC50 was 20 to 80 µM.
On to `Cc1ccc(CO)cc1Oc1ccc(C(=O)NC2CC(C)(C)NC(C)(C)C2)cc1` [Compound I-43], for which the IC50 fell in the range of 20 to 80 µM.
In the case of `CC1(C)CC(NC(=O)c2ccc(Oc3ccccc3N3CCOCC3)cc2)CC(C)(C)N1` [Compound I-44] it was 20 to 80 µM.
Under `CC1(C)CC(NC(=O)c2ccc(SCc3ccccc3)cc2)CC(C)(C)N1` [Compound I-45, 4-(Benzylthio)-N-(2,2,6,6-tetramethylpiperidin-4-yl)benzamide] stands 20 to 80 µM.
Under `Cc1cccc(OCc2ccc(C(=O)NC3CC(C)(C)NC(C)(C)C3)cc2)c1` [Compound I-46, N-(2,2,6,6-tetramethylpiperidin-4-yl)-4-(m-tolyloxymethyl)benzamide] stands 20 to 80 µM; under `CC1(C)CC(NC(=O)c2ccc(COc3cccc(-c4cccnc4N)c3)cc2)CC(C)(C)N1` [Compound I-47], 20 to 80 µM; under `Cc1ccccc1Oc1ccc(C(=O)NC2CC(C)(C)NC(C)(C)C2)cc1` [Compound I-48], 20 to 80 µM.
